Assay results reported in PMC8481502, “Bovine NK-lysin peptides exert potent antimicrobial activity against multidrug-resistant Salmonella outbreak isolates” (Scientific Reports, 2021).
Peptide text beside a SMILES is read from it.

What was measured:
[1] = tested on: MDR Salmonella enterica serovar I 4,[5],12:i:- strain USDA15WA-1 (SX238); assay: Growth curve assay (automated reader, OD600) with isolate SX238; format: cell-based
Description: (§1) Overnight cultures of a MDR Salmonella outbreak isolate (SX238) and one non-MDR Salmonella isolate (SB377) were diluted 1:1000 in LB broth to obtain approximately 1 × 10^6 colony forming units per milliliter (CFU/mL). One hundred microliters of each diluted culture were transferred into honeycomb® 100-well plates (~ 1 × 10^5 CFU/well) (Growth Curves USA, Piscataway, NJ). Bovine NK-lysin peptides (NK1, NK2A, NK2B, and NK2C) were added at the final peptide concentrations of 20, 10, 5, 3.5, 2 µM in PBS (total volume = 20 µL) with a final bacterial-peptide volume of 120 µL/well. The plates were covered with lids and placed in an automated growth curve reader (Bioscreen C; Growth Curves USA, Piscataway, NJ) which was programmed for continuous shaking at 37 °C, and optical density readings at 600 nm (OD600) were recorded every hour for 24 h. […] The optical density data were analyzed, and growth curve graphs for each isolate were generated using MS Excel. […] Twenty-four-hour growth curve assays for Salmonella isolate SX238 were repeated at different bacterial CFU (~ 1 × 10^5, 1 × 10^6, 1 × 10^7, and 1 × 10^8 CFU/mL) with NK2A (5 µM and 10 µM). Sc-NK2A was included as a control for the assay.

[2] = tested on: Salmonella SX238 outer- and inner-membranes; assay: Transmission electron microscopy of peptide-treated bacteria; format: cell-based, Salmonella enterica serovar I 4,[5],12:i:-; conditions: 20 µM peptide, 1 h at 37 °C, ~1 × 10^7 CFU/well in PBS
Description: Morphological changes of bacteria following incubation with NK2A and Sc-NK2A peptides were studied by TEM. An overnight culture of Salmonella (isolate SX238) was centrifuged and resuspended in PBS. One hundred microliters of bacterial suspension were placed in a Honeycomb plate (~ 1 × 10^7 CFU/well) and NK2A, Sc-NK2A (20 µM), and PBS were added and incubated at 37 °C with continuous shaking for 1 h. The bacterial suspensions were mixed with an equal volume of 3% glutaraldehyde in 0.1 M cacodylate buffer (pH 7.4) and processed for TEM as described before. Sections were examined with a FEI Tecnai G2 Biotwin (FEI Co., Hillboro, OR) TEM and images were taken with Advanced Microscopy Technologies (AMT Inc., Danvers, […]) imaging camera.

[3] = tested on: MDR Salmonella enterica serovar Heidelberg (SB395); assay: Growth curve assay (automated reader, OD600) with isolate SB395; format: cell-based; conditions: LB broth
Salmonella SX238 = assay: LIVE/DEAD BacLight staining, confocal laser scanning microscopy; format: cell-based, Salmonella enterica serovar I 4,[5],12:i:-; conditions: 5 µM peptide
Description: The viabilities of bacteria following incubation with NK2A and Sc-NK2A were determined using culture-independent (function of the membrane integrity of the bacteria) staining technique by using LIVE/DEAD™ BacLight™ bacterial viability kit (for microscopy) as described previously. Bacteria in each treatment was visualized using a Nikon A1R + laser scanning confocal microscope (Nikon Instruments, Melville, NY) as described previously. Images were obtained using plan Apo 60 × objective lens (oil) at numerical aperture 1.4. Final figures were prepared using Adobe Photoshop Elements 11.

[4] = tested on: Salmonella enterica serovar Typhimurium isolate UK-1 (SB377, non-MDR); assay: Growth curve assay (automated reader, OD600) with isolate SB377; format: cell-based; conditions: LB broth
Description: as §1

Swiss-Webster mice = assay: Mouse study of in vivo cytotoxic effects; conditions: single intraperitoneal dose 100 µg (~ 4 mg/kg) in PBS, female Swiss-Webster mice, 5 per cage, 2-week observation
Description: To determine whether NK-lysin peptides show in vivo cytotoxic effects, a mouse study was conducted. Briefly, thirty 5–6 weeks old female Swiss-Webster mice (Envigo, Indianapolis, IN) were housed in groups in six individual cages (5 mice per cage) in ABSL2 facilities with ad libitum access to food and water in a 12-h light:dark cycle. After 1 week of acclimation, mice were intraperitoneally injected with a single dose of 100 µg of NK-lysin peptides (NK1, NK2A, NK2B, NK2C, or Sc-NK2A, ~ 4 mg/kg of body weight) in PBS (1 mL). Mice injected with PBS (1 mL) served as a negative control for the study. Mice were daily observed for any signs of toxicity and were euthanized 2 weeks post peptide administration.

[5] = tested on: MDR Salmonella enterica serovar Typhimurium DT193 strain 1434 (SX231); assay: Growth curve assay (automated reader, OD600) with isolate SX231; format: cell-based; conditions: LB broth
[6] = tested on: MDR Salmonella outbreak isolate SX238 cytoplasmic membrane; assay: Propidium iodide (PI) uptake assay; format: cell-based, Salmonella enterica serovar I 4,[5],12:i:-; conditions: 5 µM peptide, 30 min, ~1 × 10^7 CFU/well in PBS, 3 µM PI
Description: The kinetics of NK2A-induced damage to Salmonella cell membranes were evaluated using PI uptake assay as described previously. Briefly, an overnight culture of MDR Salmonella outbreak isolate SX238 was centrifuged, washed with PBS, and resuspended in PBS. Ninety microliters of bacterial suspension was transferred to a 96-well opaque plate (~ 1 × 10^7 CFU/well), mixed with 10 µL of PI (final concentration = 3 µM) and incubated at 37 °C for 5 min. PBS, polymyxin B (2, 4, 25, 50 and 100 µg/mL), NK2A or Sc-NK2A (both at 2 and 5 µM) were added and PI fluorescent intensities in each well was continuously measured (15 s intervals, flex mode) using a FlexStation 3 multi-mode (fluorescent) microplate reader (Molecular Devices LLC., San Jose, CA) for up to 6 h. The excitation and emission wavelengths for PI was set up at 530 nm and 620 nm, respectively.

[7] = tested on: Salmonella isolates (MDR and non-MDR); assay: Growth curve assay, statements over all Salmonella isolates; format: cell-based
Description: as §1

[8] = tested on: Salmonella enterica serotype Typhimurium LPS; growth of isolate SX238; assay: NK2A-LPS binding by growth curve assay after LPS preincubation; format: cell-based
Description: The binding of NK2A to Salmonella LPS was studied by growth curve assay and TEM. Five micromolar NK2A (~ 2.2 µg/well) was preincubated with different amounts of Salmonella enterica serotype Typhimurium LPS (Sigma; LPS = 0, 0.5, 1.1, 2.2, 4.4, 8.8 µg/well, final volume of LPS and NK2A = 20 µL) at 37 °C in a honeycomb plate with continuous shaking for 30 min. Overnight Salmonella (isolate SX238) culture was diluted to ~ 1 × 10^6 CFU/mL and 100 µL was transferred into wells containing NK2A-LPS and further incubated at 37 °C with continuous shaking for 24 h. The optical density (OD600) data were analyzed, and growth curve graphs were generated.

[9] = 20 µM peptide, 24 h growth curve

Compound	growth inhibition of SX238 at the lowest bacterial concentration ([1]; 10 µM peptide, 10^4 CFU/well)	growth inhibition activity on SX238 at highest tested concentration ([1]; up to 20 µM peptide, LB broth, 24 h growth curve)	ultrastructural changes to bacterial membranes [2]	growth inhibition activity on SB395 at highest tested concentration [3, 9]	live/dead staining result (SYTO 9 / PI) (Salmonella SX238)	growth inhibition activity on SB377 at highest tested concentration ([4]; up to 20 µM peptide, 24 h growth curve)	signs of toxicity or death (Swiss-Webster mice)	growth inhibition activity on SX231 at highest tested concentration [5, 9]	PI uptake signal [6]	duration of growth inhibition at 2 µM ([1]; 2 µM peptide, LB broth (Fig. 1a))	growth inhibition of SX238 at different bacterial CFU ([1]; 10 µM peptide, 10^5–7 CFU/mL (10^4–6 CFU/well), 24 h growth period)	duration of partial growth inhibition at high inoculum ([1]; 10 µM peptide, 10^8 CFU/mL (10^7 CFU/well))	peptide concentration at which growth of SB395 was inhibited ([3]; 10^5 CFU/well, OD600 over 24 h) [µM]	peptide concentration at which growth of SB377 was completely inhibited ([4]; ~1 × 10^5 CFU/well, 37 °C, OD600 every hour for 24 h, tested 2-20 µM) [µM]	concentrations able to inhibit growth of Salmonella during 24 h ([7]; 24 h incubation in LB broth, MDR and non-MDR isolates) [µM]	final concentration to which three of the four isolates were sensitive ([7]; SX238, SX231, SB395, SB377 at 10^5 CFU/well, the three isolates are not named) [µM]	peptide concentration at which growth of SX231 was inhibited ([5]; 10^5 CFU/well, OD600 over 24 h) [µM]	delayed bacterial growth recovery after LPS preincubation ([8]; 5 µM (2.2 µg) NK2A preincubated 30 min with 1.1 µg and 2.2 µg LPS) [h]	effect of LPS preincubation on antimicrobial activity ([8]; 5 µM (2.2 µg) NK2A preincubated 30 min with 4.4 µg and 8.8 µg LPS)
CC[C@H](C)[C@H](NC(=O)[C@H](CCSC)NC(=O)[C@H](CS)NC(=O)[C@H](CCCNC(=N)N)NC(=O)[C@H](CCC(=O)O)NC(=O)[C@H](CCCCN)NC(=O)[C@H](CCCCN)NC(=O)[C@H](CS)NC(=O)[C@H](CCCCN)NC(=O)[C@H](CO)NC(=O)[C@H](CCCCN)NC(=O)CNC(=O)[C@@H](NC(=O)[C@H](CC(C)C)NC(=O)[C@H](CCCNC(=N)N)NC(=O)[C@@H](NC(=O)[C@@H](NC(=O)[C@H](C)NC(=O)[C@H](CC(C)C)NC(=O)[C@H](CO)NC(=O)[C@H](CC(C)C)NC(=O)[C@H](CO)NC(=O)[C@@H](NC(=O)[C@H](Cc1ccccc1)NC(=O)[C@@H](N)CCSC)C(C)C)[C@@H](C)O)[C@@H](C)CC)[C@@H](C)O)C(=O)N[C@@H](CC(C)C)C(=O)N[C@@H](CCCCN)C(=O)N[C@@H](CCCNC(=N)N)C(=O)N[C@@H](CCCNC(=N)N)C(=O)N[C@H](C(=O)O)C(C)C [Sc-NK2A] (H-MFVSLSLATIRLTGKSKCKKERCMILKRRV-OH; N-terminus and C-terminus assumed)	failed to inhibit bacterial growth	failed to show Salmonella growth inhibition activity	did not cause detectable damage to the bacterial membranes	failed to show Salmonella growth inhibition activity	did not have detectable antimicrobial activity	failed to show Salmonella growth inhibition activity	did not show signs of toxicity or death	failed to show Salmonella growth inhibition activity	did not show PI uptake signals										
CC[C@H](C)[C@H](NC(=O)[C@H](CO)NC(=O)[C@H](CCCCN)NC(=O)[C@H](CS)NC(=O)[C@H](CC(C)C)NC(=O)CNC(=O)[C@H](CCCCN)NC(=O)[C@H](CC(C)C)NC(=O)[C@H](CC(C)C)NC(=O)[C@H](CCCNC(=N)N)NC(=O)[C@H](CCSC)NC(=O)[C@H](CCCCN)NC(=O)[C@H](CO)NC(=O)[C@H](CS)NC(=O)[C@H](CCSC)NC(=O)[C@H](CCCCN)NC(=O)[C@H](CO)NC(=O)[C@H](C)NC(=O)[C@@H](NC(=O)[C@H](CCC(=O)O)NC(=O)[C@@H](NC(=O)[C@@H](NC(=O)[C@@H](N)[C@@H](C)O)C(C)C)[C@@H](C)CC)C(C)C)C(=O)N[C@H](C(=O)N[C@@H](CCCCN)C(=O)N[C@@H](CCCNC(=N)N)C(=O)N[C@@H](Cc1ccccc1)C(=O)N[C@@H](CC(C)C)C(=O)N[C@@H](CCCNC(=N)N)C(=O)N[C@@H](CCCNC(=N)N)C(=O)O)[C@@H](C)O [NK2A] (H-TVIEVASKMCSKMRLLKGLCKSITKRFLRR-OH; N-terminus and C-terminus assumed)			extensively damaged outer- and inner-membranes and cytosolic content leakage		many dead (red) Salmonella SX238 were detected		did not show signs of toxicity or death		rapid PI uptake was observed	up to 8 h	completely inhibited growth	up to 9 h	≥ 5	≥ 5	3.5 to 5	3.5	≥ 5	5 to 10	completely inhibited the antimicrobial activity of NK2A
